Results as given in the supplement of paper PMC10307832.

Key:
Experiment in all cases: relative viability (nuclei count vs DMSO), 5 days (fraction); higher = more cells survive
QS11 + Trametinib = compound: C1CC2=C(C1)C=C(C=C2)OC3=NC(=C4C(=N3)N(C=N4)CC5=CC=C(C=C5)C6=CC=CC=C6)N[C@@H](CC7=CC=CC=C7)CO [QS11] + CC(=O)Nc1cccc(-n2c(=O)n(C3CC3)c(=O)c3c(Nc4ccc(I)cc4F)n(C)c(=O)c(C)c32)c1 [Trametinib] (partner 0.02 µM)
Method in brief: (§1)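 The day after seeding in 1536-well plates, lung cancer cell lines were treated by pin tool with a single drug, or with a fixed anchor-drug dose together with five library-drug doses (not always all listed) in √10 steps. After 5 days, a combined fix-and-stain solution (final 0.05% Triton X-100, 1% formaldehyde, 1 ug/ml Hoechst) was added. Nuclei counted on 4× images gave relative viability as treated counts over vehicle counts, reported as the median of duplicate plates.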

QS11 + Pemetrexed = compound: C1CC2=C(C1)C=C(C=C2)OC3=NC(=C4C(=N3)N(C=N4)CC5=CC=C(C=C5)C6=CC=CC=C6)N[C@@H](CC7=CC=CC=C7)CO [QS11] + Nc1nc2[nH]cc(CCc3ccc(C(=O)N[C@@H](CCC(=O)O)C(=O)O)cc3)c2c(=O)[nH]1 [Pemetrexed] (partner 0.2 µM)
Method in brief: as §1

AZ628 + Luminespib = compound: CC1=C(C=C(C=C1)NC(=O)C2=CC(=CC=C2)C(C)(C)C#N)NC3=CC4=C(C=C3)N=CN(C4=O)C [AZ628] + CCNC(=O)c1noc(-c2cc(C(C)C)c(O)cc2O)c1-c1ccc(CN2CCOCC2)cc1 [Luminespib] (partner 0.01 µM)
Method in brief: as §1

AZ628 + AZD7762 = compound: CC1=C(C=C(C=C1)NC(=O)C2=CC(=CC=C2)C(C)(C)C#N)NC3=CC4=C(C=C3)N=CN(C4=O)C [AZ628] + NC(=O)Nc1cc(-c2cccc(F)c2)sc1C(=O)N[C@H]1CCCNC1 [AZD7762] (partner 0.2 µM)
Method in brief: as §1

Row | Cell Line | relative viability (QS11 + Trametinib; first compound 0.08 µM) | relative viability (QS11 + Trametinib; first compound 0.253 µM) | relative viability (QS11 + Trametinib; first compound 0.8 µM) | relative viability (QS11 + Trametinib; first compound 2.53 µM) | relative viability (QS11 + Trametinib; first compound 8 µM) | relative viability (QS11 + Pemetrexed; first compound 0.08 µM) | relative viability (QS11 + Pemetrexed; first compound 0.253 µM) | relative viability (QS11 + Pemetrexed; first compound 0.8 µM) | relative viability (QS11 + Pemetrexed; first compound 2.53 µM) | relative viability (QS11 + Pemetrexed; first compound 8 µM) | relative viability (AZ628 + Luminespib; first compound 0.08 µM) | relative viability (AZ628 + Luminespib; first compound 0.253 µM) | relative viability (AZ628 + Luminespib; first compound 0.8 µM) | relative viability (AZ628 + Luminespib; first compound 2.53 µM) | relative viability (AZ628 + Luminespib; first compound 8 µM) | relative viability (AZ628 + AZD7762; first compound 0.08 µM) | relative viability (AZ628 + AZD7762; first compound 0.253 µM) | relative viability (AZ628 + AZD7762; first compound 0.8 µM) | relative viability (AZ628 + AZD7762; first compound 2.53 µM) | relative viability (AZ628 + AZD7762; first compound 8 µM)
1 | NCI-H1651 | 0.855 | 0.887 | 0.761 | 0.856 | 0.922 | 0.575 | 0.616 | 0.582 | 0.598 | 0.584 | 0.92 | 0.825 | 0.919 | 0.955 | 0.61 | 0.466 | 0.393 | 0.44 | 0.448 | 0.318
2 | NCI-H1666 | 0.798 | 0.852 | 0.868 | 0.8 | 0.749 | 0.834 | 0.937 | 0.824 | 0.739 | 0.651 | 0.978 | 0.882 | 0.848 | 0.843 | 0.829 | 0.837 | 0.742 | 0.645 | 0.737 | 0.651
3 | NCI-H1734 | 0.645 | 0.626 | 0.648 | 0.546 | 0.565 | 0.374 | 0.393 | 0.393 | 0.472 | 0.424 | 0.224 | 0.19 | 0.153 | 0.172 | 0.142 | 0.504 | 0.56 | 0.561 | 0.473 | 0.373
4 | NCI-H1755 | 0.747 | 0.755 | 0.54 | 0.681 | 0.618 | 0.554 | 0.443 | 0.39 | 0.446 | 0.355 | 0.326 | 0.446 | 0.443 | 0.421 | 0.278 | 0.466 | 0.385 | 0.392 | 0.429 | 0.356
5 | NCI-H1792 | – | 0.514 | 0.39 | 0.312 | 0.306 | – | 0.603 | 0.925 | 0.629 | 0.514 | 0.528 | 0.372 | 0.334 | 0.435 | 0.192 | 0.776 | 0.668 | 0.575 | 0.541 | 0.385
6 | NCI-H1793 | 0.491 | 0.392 | 0.408 | 0.469 | 0.759 | 0.725 | 0.777 | 1.11 | 1.1 | 0.85 | 0.182 | 0.19 | 0.202 | 0.132 | 0.173 | 0.52 | 0.244 | 0.419 | 0.319 | 0.177
7 | NCI-H1915 | 0.292 | 0.292 | – | 0.288 | 0.309 | 0.583 | 0.538 | – | 0.567 | 0.529 | 0.921 | 0.816 | 0.73 | 0.6 | 0.365 | 0.741 | 0.782 | 0.644 | 0.558 | 0.271
8 | NCI-H1944 | 0.423 | 0.4 | – | 0.349 | 0.353 | 0.535 | 0.632 | – | 0.491 | 0.565 | 0.651 | 0.66 | 0.553 | 0.546 | 0.575 | 0.5 | 0.488 | 0.454 | 0.414 | 0.359
9 | NCI-H1975 | 0.329 | 0.246 | 0.328 | 0.424 | 0.327 | 0.302 | 0.279 | 0.332 | 0.326 | 0.307 | 0.23 | 0.304 | 0.196 | 0.316 | 0.228 | 0.78 | 0.624 | 0.711 | 0.779 | 0.623
10 | NCI-H1993 | 0.57 | 0.532 | 0.442 | 0.508 | 0.522 | 0.649 | 0.503 | 0.618 | 0.573 | 0.618 | 0.991 | 0.683 | 0.702 | 0.753 | 0.613 | 0.855 | 0.546 | 0.53 | 0.556 | 0.571
11 | NCI-H2085 | 0.512 | 0.483 | 0.43 | 0.513 | 0.508 | 0.879 | 0.841 | 0.925 | 1.04 | 1.01 | 0.538 | 0.41 | 0.468 | 0.503 | 0.33 | 0.997 | 0.925 | 1.04 | 1.01 | 0.566
